Assay results: EP0457243A1, “Novel tricyclic compounds” (priority 1990, dated 1991)
Like-named read-outs stand apart in the source and are kept apart here.

What was measured:
[1] = Toxicity observation after i.p. administration; format: in vivo; details: 10 mg/kg, over 90 minutes
C5BI/6J mice = test: Mouse anxiolytic behavior model (two-compartment exploratory model); format: in vivo; parameters: % ACTIVITY DARK AREA W% / SHUTTLE ACTIVITY W% / LOCOMOTOR ACTIVITY (LIGHT AREA) W% / % ACTIVITY DARK AREA Mean ± SD: concentration or dose not given beside the values; details: for % ACTIVITY DARK AREA Mean ± SD / LATENCY (SEC) Mean ± SD / LOCOMOTOR ACTIVITY (LIGHT AREA) Mean ± SD / SHUTTLE ACTIVITY Mean ± SD / TIME DARK AREA (SEC) Mean ± SD: i.p., 15 min post-treatment, monitored for 10 minutes; for % ACTIVITY DARK AREA W% / LATENCY (SEC) W% / LOCOMOTOR ACTIVITY (LIGHT AREA) W% / SHUTTLE ACTIVITY W% / TIME DARK AREA (SEC) W%: percentage change from control
Description: In brief, the method involves determining whether a compound reduces the natural anxiety of mice in brightly-lit areas.
The following describes an in vivo method for determining anxiolytic activity of compounds of Formula I.
Naive male C5BI/6J mice, 18-20 g, are kept in groups of 10 mice in quarters controlled for sound, temperature and humidity. Food and water are available ad libitum. The mice are kept on a 12 hour light and 12 hour dark cycle, with lights on at 6:00 a.m. and off at 6:00 p.m. All experiments begin at least 7 days after arrival on site.
Briefly, the chamber consists of a plexiglass box (44 x 21 x 21 cm), divided into two chambers by a black plexiglass partition. The partition dividing the two chambers contains a 13 x 5 cm opening through which the mouse can easily pass. The dark chamber has […]. A fluorescent tube light (40 watt) placed above the chambers provides the only illumination. The Digiscan Animal Activity Monitor System RXYZCM16 (Omni-Tech Electronics) records the exploratory activity of the mice within the test chambers.
Prior to commencement of the study the mice are given 60 min to acclimatize to the laboratory environment. After a mouse receives an intraperitoneal (i.p.) injection of either test compound or vehicle it is returned to its home cage for a 15 min post-treatment period. The mouse is then placed in the center of the light chamber and monitored for 10 minutes.
(§1) Anxiolysis is seen as a general increase in exploratory activity in the lighted area. An increase in exploratory activity is relected by increased latency (the time for the mouse to move to the dark chamber when first placed in the center of the lighted area), increase in shuttle activity, increased or unaltered locomotor activity (number of grid lines crossed) and decreased time spent in the dark compartment.

BKW mice = details: 1 µ/g/kg i.p.
Description: Anxiolytic activity during withdrawal from drugs of abuse is determined by the mouse light/dark withdrawal anxiety test. This procedure utilizes the exploratory model described above to test for anxiolytic activity after administration and subsequent abrupt cessation of diazepam, alcohol, cocaine or nicotine treatments. A detailed description is set for in Example 13 of this application.
The following procedure describes a method to determine whether compounds of Formula I effect the anxiety that occurs after abruptly ceasing chronic treatment with drugs of abuse.
Naive male BKW mice (25-30 g) are caged in groups of ten in quarters controlled for sound, temperature and humidity. Food and water are available ad libitum. The mice are kept on a 12 hour light cycle and 12 hour dark cycle, with lights on at 6:00 a.m. and off at 6:00 p.m. All experiments begin at least 7 days after arrival on site.
as §1, with “Levels of anxiety are determined by the two-compartment exploratory model of Crawley and Goodwin (see Example 12). Anxiolysis” for “Anxiolysis”, “area),” for “area), increase in shuttle activity,”, “crossed), increased number of rears” for “crossed)”
Increased exploratory activity in the lighted area is induced by treating the mice for 14 days with alcohol (8.0 % w/v in drinking water), nicotine (0.1 mg/kg, i.p., twice daily), diazepam (10 mg/kg, i.p., twice daily), or cocaine (1.0 mg/kg, i.p., twice daily). Anxiolysis is assessed 1, 3, 7 and 14 days after commencement of the drug regime. The treatment is abruptly ceased and exploratory activity in the lighted area is determined 8, 24 and 48 hours thereafter. Vehicle or test compounds are administered during the withdrawl phase by intraperitoneal injection. Responses are represented as inhibition of the decrease in anxiolytic behavior after the alcohol, cocaine or nicotine treatment is ceased.

SMILES	unusual effects observed [1]	% ACTIVITY DARK AREA Mean ± SD (C5BI/6J mice)	LATENCY (SEC) Mean ± SD (C5BI/6J mice)	LOCOMOTOR ACTIVITY (LIGHT AREA) Mean ± SD (C5BI/6J mice)	SHUTTLE ACTIVITY Mean ± SD (C5BI/6J mice)	TIME DARK AREA (SEC) Mean ± SD (C5BI/6J mice)	% ACTIVITY DARK AREA W% (C5BI/6J mice)	LATENCY (SEC) W% (C5BI/6J mice)	LOCOMOTOR ACTIVITY (LIGHT AREA) W% (C5BI/6J mice)	SHUTTLE ACTIVITY W% (C5BI/6J mice)	TIME DARK AREA (SEC) W% (C5BI/6J mice)	other results
Cl.Nc1cc2c3c(cccc3c1Cl)C(=O)N(C1CN3CCC1CC3)C2=O (stereo not shown) [RS-6-chloro-5-amino-2-(1-azabicyclo[2.2.2]oct-3-yl)-2,3-dihydro-1H-benz[de]isoquinoline-1,3-dione hydrochloride]	No unusual effects	–	–	–	–	–	–	–	–	–	–	–
Cc1nccn1CC1CCc2c(c3ccccc3n2C)C1=O (stereo not shown) [Ondansetron, reference compound]	–	78.5 ± 4.7%	6.7 ± 1.5 s	1582.0 ± 77.8	121.0 ± 12.4	499.4 ± 14.8 s	-13.1%	4.7%	52.6%	182.7%	-12.8%	–
Cl.O=C1c2cccc3cccc(c23)C(=O)N1[C@@H]1CN2CCC1CC2 [S-2-(1-azabicyclo[2.2.2]oct-3-yl)-2,3-dihydro-1H-benz[de]isoquinoline-1,3-dione hydrochloride]	No unusual effects	–	–	–	–	–	–	–	–	–	–	–
Cl.Nc1c(Cl)cc2c3c(cccc13)C(=O)N([C@@H]1CN3CCC1CC3)C2=O [(1), S-6-amino-5-chloro-2-(1-azabicyclo[2.2.2]oct-3-yl)-2,3-dihydro-1H-benz[de]isoquinoline-1,3-dione hydrochloride]	–	37.6 ± 4.9 %	3.5 ± 0.5 s	1208.0 ± 86.4	42.0 ± 3.9	394.9 ± 32.8 s	-54.0%	-28.6%	41.0%	37.3%	-26.9%	Crossings/ 5 Min in Light (BKW mice; alcohol withdrawal): 88.0±9.0; Latency (BKW mice; alcohol withdrawal): 9.0 ± 1.3 s; Rears/5 Min in Light (BKW mice; alcohol withdrawal): 86.0±9.0; Time in Dark (%) (BKW mice; alcohol withdrawal): 60.0±6.4%; Crossings/ 5 Min in Light (BKW mice; cocaine withdrawal): 135.±15.7; Latency (BKW mice; cocaine withdrawal): 28.7 ± 2.81 s; Rears/5 Min in Light (BKW mice; cocaine withdrawal): 101.±2.81; Time in Dark (%) (BKW mice; cocaine withdrawal): 22.5±2.4%; Crossings/ 5 Min in Light (BKW mice; diazepam withdrawal): 97.5±10.6; Latency (BKW mice; diazepam withdrawal): 34.0 ± 3.7 s; Rears/5 Min in Light (BKW mice; diazepam withdrawal): 89.2±9.1; Time in Dark (%) (BKW mice; diazepam withdrawal): 27.4±2.9%; Crossings/ 5 Min in Light (BKW mice; nicotine withdrawal): 94.0±10.1; Latency (BKW mice; nicotine withdrawal): 20.8 ± 2.4 s; Rears/5 Min in Light (BKW mice; nicotine withdrawal): 84.5±9.0; Time in Dark (%) (BKW mice; nicotine withdrawal): 29.0±3.1%
Cl.Nc1cc2c3c(cccc3c1Cl)C(=O)N([C@@H]1CN3CCC1CC3)C2=O [S-6-chloro-5-amino-2-(1-azabicyclo[2.2.2]oct-3-yl)-2,3-dihydro-1H-benz[de]isoquinoline-1,3-dione hydrochloride]	No unusual effects	–	–	–	–	–	–	–	–	–	–	–
I.Nc1c(Cl)cc2c3c(cccc13)C(=O)N([C@@H]1CN3CCC1CC3)C2=O [(2), S-6-amino-5-chloro-2-(1-azabicyclo[2.2.2]oct-3-yl)-2,3-dihydro-1H-benz[de]isoquinoline-1,3-dione hydrogeniodide]	–	78.4 ± 1.8 %	8.1 ± 1.4 s	1602.4 ± 73.0	138.6 ± 9.1	498.4 ± 9.3 s	-10.0%	102.5%	42.6%	112.3%	-10.8%	–
